Structures can show the parent of a compound that is named as a salt.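 96-well plates; 48 h exposure; 5 concentrations. Endpoints by linear interpolation between flanking doses. Not reached: highest tested concentration assigned. GI50 marks 50% less growth.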 Activity calls are given as the source filed them. Rule as the data show it: active = GI50 up to about 1.1 µM and inactive = higher.
What was measured:
Test in all cases: NCI tumour cell line growth inhibition, 48 h
DU-145 = system: DU-145
OVCAR-3 = system: OVCAR-3
HCT-116 = system: HCT-116
786-0 = system: 786-0
A498 = system: A498
NCI-H522 = system: NCI-H522
UACC-257 = system: UACC-257
CCRF-CEM = system: CCRF-CEM
MDA-MB-435 = system: MDA-MB-435
PC-3 = system: PC-3
HL-60 = system: HL-60
IGROV-1 = system: IGROV-1
OVCAR-5 = system: OVCAR-5
K562 = system: K562
NCI-H226 = system: NCI-H226
SK-MEL-5 = system: SK-MEL-5
SF-268 = system: SF-268
SK-MEL-28 = system: SK-MEL-28
OVCAR-8 = system: OVCAR-8
M14 = system: M14

## CCOC(=O)Nc1sc2c(c1C#N)CCCC2
DU-145
  GI50: > 100 µM (inactive)
OVCAR-3
  GI50: > 100 µM (inactive)
HCT-116
  GI50: 74.1 µM (inactive)
786-0
  GI50: > 100 µM (inactive)
A498
  GI50: 85.3 µM (inactive)
NCI-H522
  GI50: 64 µM (inactive)
UACC-257
  GI50: > 100 µM (inactive)
CCRF-CEM
  GI50: 64.9 µM (inactive)
MDA-MB-435
  GI50: 48.2 µM (inactive)
PC-3
  GI50: 66.4 µM (inactive)
HL-60
  GI50: 45.3 µM (inactive)
IGROV-1
  GI50: > 100 µM (inactive)
OVCAR-5
  GI50: > 100 µM (inactive)
K562
  GI50: 33.1 µM (inactive)
NCI-H226
  GI50: 89.5 µM (inactive)
SK-MEL-5
  GI50: 71.6 µM (inactive)
SF-268
  GI50: > 100 µM (inactive)
SK-MEL-28
  GI50: > 100 µM (inactive)

## O=C(O)C12C3CCC(O3)C1(C(=O)O)C1CCC2O1 (centres undefined)
DU-145
  GI50: > 100 µM (inactive)
OVCAR-3
  GI50: > 100 µM (inactive)
HCT-116
  GI50: > 100 µM (inactive)
786-0
  GI50: > 100 µM (inactive)
A498
  GI50: > 100 µM (inactive)
NCI-H522
  GI50: > 100 µM (inactive)
UACC-257
  GI50: > 100 µM (inactive)
CCRF-CEM
  GI50: > 100 µM (inactive)
OVCAR-8
  GI50: > 100 µM (inactive)
MDA-MB-435
  GI50: > 100 µM (inactive)
PC-3
  GI50: > 100 µM (inactive)
HL-60
  GI50: > 100 µM (inactive)
IGROV-1
  GI50: > 100 µM (inactive)
OVCAR-5
  GI50: > 100 µM (inactive)
K562
  GI50: > 100 µM (inactive)
NCI-H226
  GI50: > 100 µM (inactive)
SK-MEL-5
  GI50: > 100 µM (inactive)
SF-268
  GI50: > 100 µM (inactive)
SK-MEL-28
  GI50: > 100 µM (inactive)

## O=C1COc2ccc([N+](=O)[O-])cc2C(=O)C1
DU-145
  GI50: > 10 µM (inactive)
OVCAR-3
  GI50: > 10 µM (inactive)
HCT-116
  GI50: > 10 µM (inactive)
786-0
  GI50: > 10 µM (inactive)
A498
  GI50: > 10 µM (inactive)
UACC-257
  GI50: > 10 µM (inactive)
CCRF-CEM
  GI50: > 10 µM (inactive)
OVCAR-8
  GI50: > 10 µM (inactive)
MDA-MB-435
  GI50: > 10 µM (inactive)
PC-3
  GI50: > 10 µM (inactive)
HL-60
  GI50: > 10 µM (inactive)
IGROV-1
  GI50: > 10 µM (inactive)
OVCAR-5
  GI50: > 10 µM (inactive)
K562
  GI50: > 10 µM (inactive)
NCI-H226
  GI50: > 10 µM (inactive)
SK-MEL-5
  GI50: > 10 µM (inactive)
M14
  GI50: > 10 µM (inactive)
SF-268
  GI50: > 10 µM (inactive)
SK-MEL-28
  GI50: > 10 µM (inactive)

## COc1ccc(OC)c(C2Cc3cnc4nc(N)nc(N)c4c3C2)c1 (centres undefined)
DU-145
  GI50: 29.2 µM (inactive)
OVCAR-3
  GI50: 20.5 µM (inactive)
HCT-116
  GI50: 19.8 µM (inactive)
786-0
  GI50: 24.2 µM (inactive)
A498
  GI50: 16.9 µM (inactive)
NCI-H522
  GI50: 24.1 µM (inactive)
UACC-257
  GI50: 18.3 µM (inactive)
CCRF-CEM
  GI50: 24.4 µM (inactive)
OVCAR-8
  GI50: 26.2 µM (inactive)
MDA-MB-435
  GI50: 26.1 µM (inactive)
PC-3
  GI50: 22.4 µM (inactive)
HL-60
  GI50: 20.4 µM (inactive)
IGROV-1
  GI50: 15.8 µM (inactive)
OVCAR-5
  GI50: 32.9 µM (inactive)
K562
  GI50: 19.1 µM (inactive)
SK-MEL-5
  GI50: 29.6 µM (inactive)
M14
  GI50: 36.1 µM (inactive)
SF-268
  GI50: 34.2 µM (inactive)
SK-MEL-28
  GI50: 33.7 µM (inactive)

## O=C(O)C1C(C(=O)O)C23CC2(C(=O)O)C2(C(=O)O)CCC3=C3CCCC312 (centres undefined)
DU-145
  GI50: 11.7 µM (inactive)
OVCAR-3
  GI50: 2.5 µM (inactive)
HCT-116
  GI50: 6.85 µM (inactive)
786-0
  GI50: 10.3 µM (inactive)
A498
  GI50: 18.3 µM (inactive)
NCI-H522
  GI50: 3.73 µM (inactive)
UACC-257
  GI50: 3.39 µM (inactive)
OVCAR-8
  GI50: 10.7 µM (inactive)
MDA-MB-435
  GI50: 7.73 µM (inactive)
PC-3
  GI50: 5.45 µM (inactive)
HL-60
  GI50: 3.44 µM (inactive)
IGROV-1
  GI50: 7.93 µM (inactive)
OVCAR-5
  GI50: 16.6 µM (inactive)
K562
  GI50: 12.7 µM (inactive)
NCI-H226
  GI50: 10.4 µM (inactive)
SK-MEL-5
  GI50: 5.22 µM (inactive)
M14
  GI50: 6.84 µM (inactive)
SF-268
  GI50: 4.51 µM (inactive)
SK-MEL-28
  GI50: 5.97 µM (inactive)

## N#CC(=C1CCN(CCCC(=O)c2ccc(F)cc2)CC1)c1ccccc1
DU-145
  GI50: > 100 µM (inactive)
HCT-116
  GI50: > 100 µM (inactive)
786-0
  GI50: > 100 µM (inactive)
A498
  GI50: > 100 µM (inactive)
NCI-H522
  GI50: 21.3 µM (inactive)
UACC-257
  GI50: > 100 µM (inactive)
CCRF-CEM
  GI50: > 100 µM (inactive)
OVCAR-8
  GI50: > 100 µM (inactive)
MDA-MB-435
  GI50: > 100 µM (inactive)
PC-3
  GI50: > 100 µM (inactive)
HL-60
  GI50: > 100 µM (inactive)
IGROV-1
  GI50: > 100 µM (inactive)
OVCAR-5
  GI50: > 100 µM (inactive)
K562
  GI50: > 100 µM (inactive)
NCI-H226
  GI50: > 100 µM (inactive)
SK-MEL-5
  GI50: > 100 µM (inactive)
SF-268
  GI50: > 100 µM (inactive)
SK-MEL-28
  GI50: > 100 µM (inactive)

## CC(=O)OC[C@H]1CN(OC(C)=O)C[C@@H](n2cc(C)c(=O)[nH]c2=O)O1
DU-145
  GI50: > 100 µM (inactive)
HCT-116
  GI50: > 100 µM (inactive)
786-0
  GI50: > 100 µM (inactive)
A498
  GI50: > 100 µM (inactive)
UACC-257
  GI50: > 100 µM (inactive)
OVCAR-8
  GI50: > 100 µM (inactive)
MDA-MB-435
  GI50: > 100 µM (inactive)
PC-3
  GI50: > 100 µM (inactive)
HL-60
  GI50: > 100 µM (inactive)
IGROV-1
  GI50: > 100 µM (inactive)
OVCAR-5
  GI50: > 100 µM (inactive)
K562
  GI50: > 100 µM (inactive)
NCI-H226
  GI50: > 100 µM (inactive)
SK-MEL-5
  GI50: > 100 µM (inactive)
M14
  GI50: > 100 µM (inactive)
SF-268
  GI50: > 100 µM (inactive)
SK-MEL-28
  GI50: > 100 µM (inactive)

## [O-][n+]1nc(N2CCOCC2)nc2ccccc21
DU-145
  GI50: > 100 µM (inactive)
HCT-116
  GI50: > 100 µM (inactive)
786-0
  GI50: > 100 µM (inactive)
A498
  GI50: 43.3 µM (inactive)
NCI-H522
  GI50: > 100 µM (inactive)
UACC-257
  GI50: > 100 µM (inactive)
CCRF-CEM
  GI50: > 100 µM (inactive)
OVCAR-8
  GI50: > 100 µM (inactive)
MDA-MB-435
  GI50: > 100 µM (inactive)
PC-3
  GI50: > 100 µM (inactive)
HL-60
  GI50: > 100 µM (inactive)
IGROV-1
  GI50: > 100 µM (inactive)
OVCAR-5
  GI50: > 100 µM (inactive)
K562
  GI50: > 100 µM (inactive)
NCI-H226
  GI50: > 100 µM (inactive)
M14
  GI50: > 100 µM (inactive)
SF-268
  GI50: > 100 µM (inactive)
SK-MEL-28
  GI50: > 100 µM (inactive)

## COc1ccc(CCNC(=O)c2ccccc2C2c3ccc(OCc4ccccc4)cc3Oc3cc(OCc4ccccc4)ccc32)cc1OC
DU-145
  GI50: > 100 µM (inactive)
OVCAR-3
  GI50: > 100 µM (inactive)
HCT-116
  GI50: > 100 µM (inactive)
786-0
  GI50: > 100 µM (inactive)
A498
  GI50: > 100 µM (inactive)
NCI-H522
  GI50: > 100 µM (inactive)
UACC-257
  GI50: 94.6 µM (inactive)
OVCAR-8
  GI50: > 100 µM (inactive)
MDA-MB-435
  GI50: > 100 µM (inactive)
PC-3
  GI50: > 100 µM (inactive)
HL-60
  GI50: 0.668 µM (active)
IGROV-1
  GI50: > 100 µM (inactive)
OVCAR-5
  GI50: > 100 µM (inactive)
K562
  GI50: > 100 µM (inactive)
NCI-H226
  GI50: > 100 µM (inactive)
SK-MEL-5
  GI50: > 100 µM (inactive)
M14
  GI50: > 100 µM (inactive)
SF-268
  GI50: > 100 µM (inactive)
SK-MEL-28
  GI50: > 100 µM (inactive)

## OCCN1CN(c2nc(N3CN(CCO)C3)nc(N3CN(CCO)C3)n2)C1
DU-145
  GI50: 23.6 µM (inactive)
HCT-116
  GI50: 18.6 µM (inactive)
786-0
  GI50: 23.8 µM (inactive)
A498
  GI50: 31.5 µM (inactive)
NCI-H522
  GI50: 13.4 µM (inactive)
UACC-257
  GI50: 18.9 µM (inactive)
CCRF-CEM
  GI50: 20.5 µM (inactive)
OVCAR-8
  GI50: 45.6 µM (inactive)
MDA-MB-435
  GI50: 17.8 µM (inactive)
PC-3
  GI50: 22.1 µM (inactive)
HL-60
  GI50: 16 µM (inactive)
IGROV-1
  GI50: 30.1 µM (inactive)
OVCAR-5
  GI50: 23.1 µM (inactive)
K562
  GI50: 25.4 µM (inactive)
NCI-H226
  GI50: 24.8 µM (inactive)
SK-MEL-5
  GI50: 19.2 µM (inactive)
M14
  GI50: 17.5 µM (inactive)
SF-268
  GI50: 22.6 µM (inactive)
SK-MEL-28
  GI50: 17.7 µM (inactive)

## NCCCCNCCCN [SPERMIDINE TRIHYDROCHLORIDE]
DU-145
  GI50: > 100 µM (inactive)
OVCAR-3
  GI50: > 100 µM (inactive)
HCT-116
  GI50: > 100 µM (inactive)
786-0
  GI50: > 100 µM (inactive)
A498
  GI50: > 100 µM (inactive)
NCI-H522
  GI50: 97.1 µM (inactive)
UACC-257
  GI50: > 100 µM (inactive)
OVCAR-8
  GI50: > 100 µM (inactive)
MDA-MB-435
  GI50: 27.4 µM (inactive)
PC-3
  GI50: > 100 µM (inactive)
HL-60
  GI50: > 100 µM (inactive)
IGROV-1
  GI50: > 100 µM (inactive)
OVCAR-5
  GI50: > 100 µM (inactive)
K562
  GI50: 67.8 µM (inactive)
NCI-H226
  GI50: > 100 µM (inactive)
SK-MEL-5
  GI50: > 100 µM (inactive)
M14
  GI50: > 100 µM (inactive)
SF-268
  GI50: > 100 µM (inactive)
SK-MEL-28
  GI50: > 100 µM (inactive)

Reference: ChEMBL document CHEMBL1201862, “PubChem BioAssay data set” (2004)
